Measurements published in US20030118985A1, “Mouse monoclonal antibody (5-21-3) to human immunodeficiency virus gp41 protein” (priority 1997, published 2003).
“Also recorded” adds a separate entry of the source.

Key:
[1] = test system: monoclonal antibody 5-21-3; test: Immuno-dot blot of synthetic peptides with 5-21-3; type: binding, mouse; conditions: 25 ug/ml 5-21-3; peptide spotted on nitrocellulose
From the text: (§1) The western Blot procedure described in Example 1 was employed for development of immuno-dot blots using synthetic peptides, except that synthetic peptides were fixed to nitrocellulose by direct application using Drummond lambda pipettes, and air dried prior to blocking with 20% fetal calf serum in PBS (pH 7.4).

[2] = test system: monoclonal antibody 10-15-63; test: Immuno-dot blot of synthetic peptides with 10-15-63; type: binding, mouse; conditions: 25 ug/ml 10-15-63
From the text: as §1

[3] = test system: Rabbit (R) anti-P58-130 serum; test: Immuno-dot blot of synthetic peptides with rabbit anti-P58-130 serum; type: binding; conditions: 2% serum
From the text: as §1

[4] = test system: mouse (M) anti-rp41 serum; test: Immuno-dot blot of synthetic peptides with mouse anti-rp41 serum; type: binding; conditions: 2% serum
From the text: as §1

[5] = test system: monoclonal antibody 5-21-3; test: Immunoprecipitation of [125I] synthetic peptides by 5-21-3; type: binding, mouse; conditions: for SPECIFIC PRECIPITATION (CPM) by 5-21-3 / x-fold increase of specific over non-specific precipitation, 5-21-3: 5-21-3 10 μg/0.2 ml
Experimental: (§2) Synthetic peptides were radiolabeled with ^125I (Amersham) by the chloramine T method (N. M. Hunter, “Radioimmunoassay” in D. M. Weir, Ed., Handbook of Experimental Immunology, [Blackwell Scientific Publications, 1973]). Generally, 2-6 ul of 100 mCi/ml ^125I were added to 10-50 ug of peptide in PBS, pH 7.4. Approximately 10 ug of freshly prepared (1 mg/ml in PBS) chloramine T were added to the mixture maintained at 4° C. After 5 min., [^125I]peptide was separated from free ^125I by passage of the reaction mixture through a 3 ml (bed volume) column of Biogel P-6 or P-2, as required. Fractions (200 ul each) containing [^125I]peptide were pooled and diluted into PBS containing 20% fetal calf serum. Rough estimations of ^125I cpm bound to peptide were made by acid precipitation. An aliquot of labeled peptide was diluted into 1 ml of ice cold 50% trichloroacetic acid (TCA) overlaying a 0.45 um filter (made of mixed cellulose esters) set on a scintered glass filter connected to a vacuum apparatus. Precipitated protein was fixed onto the filter by application of vacuum, and filters were washed with ice-cold 50% TCA. Background cpm adhering non-specifically to the filter were estimated by repeating the procedure using a non-precipitating buffer. Amounts of peptide, ^125I, chloramine T, and composition of column eluting buffer were subject to change depending on conditions required to maintain solubility of each peptide.
(§3) Synthetic peptides radiolabeled with ^125I were diluted into PBS (pH 7.4) containing 0.1% Triton X-100 (or other detergents where indicated) and 1.0% BSA, to yield approximately 2.5-5×10^5 acid-precipitable cpm per 0.1 ml. Purified monoclonal IgG 5-21-3 and 10-15-63 were employed in the assay. Monoclonal antibodies were diluted into PBS containing 0.1% Triton X-100 (or other detergents where indicated), 1.0% BSA, and 2% normal mouse serum as a carrier immunoglobulin. Immune rabbit serum (anti-P58-130) was diluted appropriately into the same buffer except that normal rabbit serum (2%) was substituted for normal mouse serum as the carrier immunoglobulin. A reaction mixture comprising 0.1 ml [^125I] peptide (5×10^5 cpm/0.1 ml) and 0.1 ml diluted antibody was incubated 1 hr at 40° C., followed by addition of 0.1 ml of a precipitating antibody, either goat anti-mouse IgG, or goat anti-rabbit IgG, corresponding to the primary antibody. The reaction mixture was incubated 1 hr at 40° C. and then overnight at 4° C. […] Precipitation assays employing Protein A-Sepharose as the precipitating reagent were performed in a similar manner, except that normal sera were omitted from the reaction mixtures.

[6] = test system: monoclonal antibody 10-15-63; test: Immunoprecipitation of [125I] synthetic peptides by 10-15-63; type: binding, mouse; conditions: for SPECIFIC PRECIPITATION (CPM) by 10-15-63 / x-fold increase of specific over non-specific precipitation, 10-15-63: 10-15-63 10 μg/0.2 ml
Experimental: as §2, §3

[7] = test system: Rabbit (R) anti-P58-130 serum; test: Immunoprecipitation of [125I] synthetic peptides by rabbit anti-P58-130 serum; type: binding; conditions: for SPECIFIC PRECIPITATION (CPM) by RαP58-130 / x-fold increase of specific over non-specific precipitation, RαP58-130: rabbit anti-P58-130 serum 20 ul/0.2 ml
Experimental: as §2, §3

[8] = test system: binding of antibody 5-21-3 to rp41; test: Binding inhibition assay: peptides inhibit binding of 5-21-3 to rp41; set-up: species or system HIV I
Experimental: Additional evidence for the conformationl nature of the 5-21-3 epitope was obtained using binding inhibition studies, in which synthetic peptides were ranked for their ability to inhibit binding of 5-21-3 to rp41. First, the Fab dimer of an anti-gp41 monoclonal antibody was prepared by conventional methods (Goding et al., supra). Then 100 ul of a 1 mg/ml solution of the Fab dimer in bicarbonate buffer (pH 9.6) was coated onto Immulon II microtiter plates for 1 hr at 37° C. After washing with PBS containing 0.05% Tween 20, the plates were overcoated with 200 ul of 1.0% ovalbumin in bicarbonate buffer (pH 9.6) for 1 hr at 30° C. After washing, 100 ul of rp41 enriched E. coli lysate (as described in Example 3), diluted appropriately in PBS containing 0.05% Tween 20, were allowed to bind to the Fab dimer for 2 hr at 30° C. The plates were washed and stored at 4° C.
Intact monoclonal antibody 5-21-3 IgG (purified from tissue culture fluid supporting growth of the cloned cell line 5-21-3) was titrated against the bound rp41 on the plate, and an antibody concentration was selected which yielded an A492 value of 2.0-3.0. Usually, 0.4 pmol (0.06 ug) of 5-21-3 IgG per microtiter well was employed in these assays. Stock solutions of 5-21-3 IgG were prepared in PBS containing 0.1% Triton X-100 and 0.1% SDS. Dilutions of synthetic peptides were made in the same buffer (SDS was included in these experiments to keep peptides soluble at high concentrations).
The binding inhibition assay was performed by combining 0.15 ml of 1.2 ug/ml 5-21-3 antibody stock solution with 0.15 ml of peptide at a selected peptide concentration, and incubating the reaction mixture 1 hr at room temp. Then 0.1 ml aliquots of each reaction mixture were added to each of two wells in the microtiter tray. After a 1 hr incubation at room temp., the plates were washed, and HRPO conjugated Goat anti-mouse IgG Fc was added for 1 hr at room temp. The plates were washed, and addition of OPD for color development identified the relative amounts of 5-21-3 bound to rp41 in the microtiter wells. The reaction was stopped by addition of 100 ul of 1N H2SO4, and the plates were read on a Dynatech II microtiter plate reader.

[9] = detergent-rich buffer, Protein A-Sepharose
[10] = PBS, 0.1% Triton X-100, 1.0% BSA, carrier serum, second antibody precipitation
[11] = second antibody precipitation, vs normal mouse IgG

For “H-TVWGIKELQARILAVERYLKDQQLLGIWGCSGKLICTTAVPWNASWSNKSLEQIWNNMTWMEWDREINNYTSL-OH [P58-130]”, the “immuno-dot blot reactivity with 5-21-3” value [1] was “did not react”, the “immuno-dot blot reactivity with 10-15-63” value [2] was “Little or no reactivity” and the “immuno-dot blot reactivity with rabbit anti-P58-130 serum” value [3] was “Strong reactivities”. For the same substance, the “immuno-dot blot reactivity with mouse anti-rp41 serum” value [4] was “Strong reactivities”, the “binding of [125I]peptide by 5-21-3 (immunoprecipitation), in words” value [5] was “unable to bind” and the “SPECIFIC PRECIPITATION (CPM) by 5-21-3” value ([5]; detergent-rich buffer (0.1% Triton X-100, 1.0% sodium deoxycholate, 0.1% SDS), Protein A-Sepharose) was 0 CPM. The “x-fold increase of specific over non-specific precipitation, 5-21-3” value [5, 9] was “(<1) x-fold”, the “SPECIFIC PRECIPITATION (CPM) by 10-15-63” value [6, 9] was 0 CPM and the “x-fold increase of specific over non-specific precipitation, 10-15-63” value [6, 9] was “(<1) x-fold”. For the same substance, the “precipitation of [125I]peptide by rabbit anti-P58-130, in words” value [7] was “strong precipitator”, the “SPECIFIC PRECIPITATION (CPM) by RαP58-130” value [7, 9] was 286,722 CPM and the “x-fold increase of specific over non-specific precipitation, RαP58-130” value [7, 9] was “(32) x-fold”. The “inhibition of 5-21-3 binding to rp41, in words” value [8] was “no detectable inhibition”.

In the case of “ARILAVERYLKDQQLLGIWGCSGKLICTTAVPWNASWSNKSLEQIWNNMTWMEWDREINNYSLIHSLIEESQNQQEKNELLELNK [P67-154]”, the “immuno-dot blot reactivity with 5-21-3” value [1] was “very strong reaction”, the “immuno-dot blot reactivity with 10-15-63” value [2] was “Little or no reactivity” and the “immuno-dot blot reactivity with rabbit anti-P58-130 serum” value [3] was “Strong reactivities”. For the same substance, the “immuno-dot blot reactivity with mouse anti-rp41 serum” value [4] was “Strong reactivities”, the “binding of [125I]peptide by 5-21-3 (immunoprecipitation), in words” value [5] was “readily bound” and the “SPECIFIC PRECIPITATION (CPM)” value ([5]; 5-21-3 1.0 μg/ml final) was 165,781 CPM. The “x-fold increase of specific over non-specific precipitation” value ([5]; 5-21-3 1.0 μg/ml final) was “(3.6) x-fold”, the “SPECIFIC PRECIPITATION (CPM) by 5-21-3” value [5, 10] was 479,207 CPM and the “x-fold increase of specific over non-specific precipitation, 5-21-3” value [5, 11] was “(16) x-fold”. For the same substance, the “SPECIFIC PRECIPITATION (CPM)” value ([5]; 5-21-3 10.0 μg/ml final) was 441,887 CPM, the “x-fold increase of specific over non-specific precipitation” value ([5]; 5-21-3 10.0 μg/ml final) was “(8.5 x-fold” and the “SPECIFIC PRECIPITATION (CPM)” value ([5]; 5-21-3 100.0 μg/ml final) was 659,045 CPM. The “x-fold increase of specific over non-specific precipitation” value ([5]; 5-21-3 100.0 μg/ml final) was “(8.0) x-fold”, the “5-21-3 concentration required to demonstrate binding of the peptide” value ([5]; immunoprecipitation, Table 5) was no more than 1 µg/mL and the “SPECIFIC PRECIPITATION (CPM)” value ([6]; 10-15-63 1.0 μg/ml final) was 0 CPM. For the same substance, the “x-fold increase of specific over non-specific precipitation” value ([6]; 10-15-63 1.0 μg/ml final) was “(0) x-fold”, the “SPECIFIC PRECIPITATION (CPM) by 10-15-63” value [6, 10] was 9713 CPM and the “x-fold increase of specific over non-specific precipitation, 10-15-63” value [6, 11] was “(1.3) x-fold”. For the same substance, the “SPECIFIC PRECIPITATION (CPM)” value ([6]; 10-15-63 10.0 μg/ml final) was 0 CPM, the “x-fold increase of specific over non-specific precipitation” value ([6]; 10-15-63 10.0 μg/ml final) was “(0) x-fold” and the “SPECIFIC PRECIPITATION (CPM)” value ([6]; 10-15-63 100.0 μg/ml final) was 0 CPM. For the same substance, the “x-fold increase of specific over non-specific precipitation” value ([6]; 10-15-63 100.0 μg/ml final) was “(0) x-fold”, the “precipitation of [125I]peptide by rabbit anti-P58-130, in words” value [7] was “strong precipitator” and the “SPECIFIC PRECIPITATION (CPM) by RαP58-130” value ([7]; second antibody precipitation) was 479,343 CPM. For the same substance, the “x-fold increase of specific over non-specific precipitation, RαP58-130” value ([7]; second antibody precipitation, vs normal rabbit serum) was “(4.4) x-fold”, the “inhibition of 5-21-3 binding to rp41, in words” value [8] was “potent inhibitor; also recorded: most potent inhibitor” and the “Molar Ratio at 50% inhibition of 5-21-3 binding” value ([8]; mean of two experiments, 0.4 pmol 5-21-3 IgG per well) was 72.7 pmoles peptide/pmoles 5-21-3.
